{
  "source": "paper PMC11623267",
  "about": "“Inhibitors of malaria parasite cyclic nucleotide phosphodiesterases block asexual blood-stage development and mosquito transmission” (Science Advances, 2024)",
  "key": {"human PDE5A1": {"target": "T1, human PDE5A1 (Homo sapiens, UniProt O76074)", "T1 construct": "GST (glutathione S-transferase); purchased BPS Bioscience BPS-60050", "experiment": "Human PDE5 selectivity SPA", "type": "biochemical", "conditions": "IC50 PDE5A1 / IC50 PDEβ schizont lysates", "protocol": "(§1) The selectivity of the compounds on the parasite PDEs over the two human isoforms PDE5A1 and PDE6C was measured through a dose-response assay of their hydrolytic activity in presence of the compounds. Similarly to the parasite lysates, an SPA was carried out with the recombinant purified human glutathione S-transferase–tagged PDE5A1 or PDE6C (BPS Bioscience, BPS-60050 and BPS-60062) prepared in PDE assay buffer [10 mM tris-HCl (pH 7.4), 10 mM MgCl2, bovine serum albumin (0.1 mg/ml), and 0.05% Tween 20] at a concentration of 648 pg of enzyme per 50 μl of total volume per well. To determine the IC50 of the compounds, threefold serial dilutions in duplicate were performed. Briefly, the assays were carried out in flexible 96-well plates (PerkinElmer, 1450-401) by incubating the enzyme with the compounds and 5 μl of 200 nM cGMP dilution [[^3H]-cNMP tracer (PerkinElmer, cGMP-NET337250UC) in PDE assay buffer] to a total volume of 50 μl for 45 min at 37°C. The reactions were terminated by addition of 25 μl of PDE SPA beads (PerkinElmer, RPNQ0150), and after 20 min of incubation at room temperature, scintillation was measured using a Wallac 1450 Microbeta Counter (PerkinElmer) for 30 s. […] The selectivity of the compounds was expressed as the fold change in the IC50 obtained for PDE5A1 or PDE6C and the IC50 for the P. falciparum PDEβ schizont lysates."}, "[1]": {"system": "P. falciparum stage IV/V gametocytes", "experiment": "LDH-based gametocyte viability assay", "type": "cell-based, Plasmodium falciparum", "conditions": "stage IV to V gametocytes", "protocol": "The pLDH assay was performed on late (>95% stage IV/V) gametocytes. Compound dilutions were placed in triplicate in 96-well plates in a final volume of 100 μl per well. DHA and MMV048 were used as positive drug controls. The gametocyte cultures (100 μl per well) were added to the 96-well plates to achieve a final gametocytemia and hematocrit of 2 and 1%, respectively, in a total incubation volume of 200 μl. Plates were incubated at 37°C for 72 hours, followed by the replacement of spent medium with drug-free culture medium (75% medium change) ([54], [55]). Plates were then incubated for a further 72 hours before assessing viability by measuring pLDH activity. Gametocyte viability was determined spectrophotometrically by measuring the activity of pLDH, according to a modified version of a published protocol ([56]). Briefly, 100 μl of Malstat reagent [0.21% (v/v) Triton X-100, 222 mM L-(+)-lactic acid, 54.5 mM tris, 0.166 mM APAD (Sigma-Aldrich, A5251), adjusted to pH 9 with 1 M NaOH] was transferred into a clean 96-well plate. A fixed volume of 20 μl of parasite suspension per well was added to the Malstat plate, followed by the addition of 25 μl of PES/NBT (0.239 mM phenazine ethosulfate and 1.96 mM nitro blue tetrazolium chloride). Absorbance was measured with a Multiskan Ascent 354 multiplate scanner (Thermo LabSystems, Finland) at 620 nm."}, "[2]": {"system": "P. falciparum stage V gametocytes (male gamete formation)", "experiment": "Exflagellation (male gamete formation) inhibition assay", "type": "cell-based, Plasmodium falciparum", "conditions": "2 μM, 48 hours", "protocol": "The exflagellation inhibition assay was performed by capturing movement of exflagellation centers over time by video microscopy [adapted from a reported protocol ([52])]. For this carry-over format, mature stage V gametocytes were treated with 2 μM of each compound for 48 hours before induction of exflagellation in the presence of compound. To evaluate compound dose response, gametocytes were treated similarly at a set of concentrations representing a fourfold serial dilution. Mature gametocyte cultures (>95% stage V; 500 μl) were centrifuged at 3500 rpm for 30 s, and the pellet was resuspended in 30 μl of ookinete medium [RPMI 1640 medium containing L-glutamine (Sigma-Aldrich, R6504), gentamycin (0.024 mg/ml; HyClone, SV30080.01), 202 μM hypoxanthine (Sigma-Aldrich, H9636), 25 mM Hepes (Sigma-Aldrich, H4034), 0.2% glucose (Sigma-Aldrich, G6152), and 0.5% (w/v) AlbuMAX II (Invitrogen, Paisley, UK), supplemented with 100 μM XA and 20% human serum]. The activated culture (10 μl) was introduced into a Neubauer chamber and placed on the microscope platform to settle homogenously. Time was noted as time zero (T0), and the chamber was incubated at room temperature. Movement was recorded by video microscopy using a Carl Zeiss NT 6V/10W Stab microscope, fitted with a MicroCapture camera at 10× magnification, and then quantified by a semiautomated method, a modification of the method described previously ([53]). A series of 15 videos of 8 to 10 s each were captured at random locations between 15 and 22.5 min after incubation. Each video was analyzed using Icy bioimage analysis software to quantify the number of exflagellating centers. Compound IC50 values were determined with nonlinear curve fitting (GraphPad Prism 6), normalized to maximum and minimum inhibition."}, "[3]": {"system": "P. falciparum stage V gametocytes (female gamete formation)", "experiment": "Female gamete formation inhibition assay", "type": "cell-based, Plasmodium falciparum", "conditions": "2 μM, 48 hours", "protocol": "Mature gametocytes (>95% stage V) were treated with compounds (2 μM) for 48 hours before stimulating female gamete formation. To evaluate compound dose response, gametocytes were treated similarly at set concentrations representing a fourfold serial dilution. Female gamete activation was induced by both a temperature drop and the addition of 100 μM XA. Monoclonal anti-Pfs25 antibody (BEI Resources, catalog number MRA-28; 1:1000 dilution) conjugated to fluorescein isothiocyanate was used to detect female gametes. Image acquisition was performed using a Zeiss Axio Lab.A1 epifluorescence microscope with a 100/1.4 numerical aperture oil immersion objective and a Zeiss Axiocam 202 mono digital camera. Using a 100× objective, 30 images were taken per sample and analyzed manually. The number, size, roundness, and intensity of fluorescence of activated female gametocytes were evaluated. Compound IC50 values were determined with nonlinear curve fitting (GraphPad Prism 6), normalized to maximum and minimum inhibition."}, "human PDE6C": {"target": "T2, human PDE6C (Homo sapiens, UniProt P51160)", "T2 construct": "GST (glutathione S-transferase); purchased BPS Bioscience BPS-60062", "T2 sequence (P51160 whole entry)": "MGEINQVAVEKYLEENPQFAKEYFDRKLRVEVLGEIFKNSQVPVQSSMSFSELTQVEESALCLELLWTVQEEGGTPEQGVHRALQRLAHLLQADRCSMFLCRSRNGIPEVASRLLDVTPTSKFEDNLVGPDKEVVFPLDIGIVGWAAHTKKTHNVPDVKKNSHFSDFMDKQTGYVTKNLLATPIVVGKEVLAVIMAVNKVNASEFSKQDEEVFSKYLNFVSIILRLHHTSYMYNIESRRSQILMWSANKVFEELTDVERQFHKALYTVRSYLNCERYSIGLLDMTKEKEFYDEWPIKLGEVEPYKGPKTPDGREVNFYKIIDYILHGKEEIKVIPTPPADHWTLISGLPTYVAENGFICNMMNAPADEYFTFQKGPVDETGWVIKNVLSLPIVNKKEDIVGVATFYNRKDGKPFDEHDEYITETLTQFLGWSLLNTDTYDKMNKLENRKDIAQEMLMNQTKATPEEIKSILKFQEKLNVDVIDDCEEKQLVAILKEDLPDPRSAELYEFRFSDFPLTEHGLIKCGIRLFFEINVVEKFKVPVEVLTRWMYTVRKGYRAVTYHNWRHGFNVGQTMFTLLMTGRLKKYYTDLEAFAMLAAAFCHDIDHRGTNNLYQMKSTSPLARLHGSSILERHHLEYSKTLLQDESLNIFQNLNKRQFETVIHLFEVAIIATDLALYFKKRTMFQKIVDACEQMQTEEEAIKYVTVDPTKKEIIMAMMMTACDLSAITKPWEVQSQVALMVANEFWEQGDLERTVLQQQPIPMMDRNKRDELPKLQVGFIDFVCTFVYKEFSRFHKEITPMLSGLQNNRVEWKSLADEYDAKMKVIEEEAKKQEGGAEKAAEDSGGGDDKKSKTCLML", "experiment": "Human PDE6 selectivity SPA", "type": "biochemical", "conditions": "IC50 PDE6C / IC50 PDEβ schizont lysates", "protocol": "as §1"}, "[4]": {"system": "P. falciparum clinical isolates from Tororo and Busia Districts of Uganda", "experiment": "Ex vivo 72-hour SYBR Green assay, Ugandan clinical isolates", "type": "cell-based, Plasmodium falciparum", "conditions": "47 Ugandan isolates", "description": "Clinical isolates were from the Tororo District of Uganda, located in the central-eastern part of the county near the Kenya border. Tororo and surrounding areas have high-intensity, year-round malaria transmission. […] Patients reporting use of antimalarial treatment within the previous 30 days or with evidence of an infection with other Plasmodium species were excluded. Informed consent was obtained from patients and/or primary care givers (depending on age); children aged 8 to 17 years provided assent. Two to 5 ml of blood was collected by venipuncture in a heparin tube. Samples were delivered to the adjacent IDRC laboratory at Tororo District Hospital or transported by car from Masafu Hospital on the day of collections for storage of blood spots on filter paper (for isolation of nucleic acids) and initiation of ex vivo culture of malaria parasites. Treatment involved a standard therapeutic regimen for uncomplicated falciparum malaria, which was a 3-day course of the artemisinin-based combination therapy (ACT), artemether-lumefantrine. In Uganda, at the time of sampling, there was widespread resistance to the antifolate drugs due to mutant pfdhfr/pfdhps alleles. […] Chloroquine was prepared at 10 mM in water. Stock solutions were stored at −20°C. Working solutions were freshly prepared from a single aliquot within 4 hours of the susceptibility test and stored at 4°C.\n(§2) Samples were delivered to the adjacent IDRC laboratory at Tororo District Hospital or transported by car from Masafu Hospital on the day of collection for storage of blood spots on filter paper (for isolation of nucleic acids) and initiation of ex vivo culture of malaria parasites. […] Before assay, 10 mM antimalarial stock compounds were diluted as necessary in DMSO and stored at −20°C. […] Compounds were serially diluted threefold in a 96-well assay plate in complete medium to a final volume of 50 μl, in columns 1 to 10, with concentrations optimized to capture full dose-response curves. Column 11 contained compound-free controls, while column 12 contained uninfected human RBC controls. Parasite culture (150 μl) was added to columns 1 to 11 of the assay plate with a final volume of 200 μl per well, 0.2% parasitemia, and 2% hematocrit. […] Thawed plates were incubated with SYBR Green lysis buffer for 1 hour in the dark as previously reported ([62]). Fluorescence was quantified using a BMG Fluostar Optima plate reader at an excitation of 485 nm and an emission of 530 nm, and data were plotted using GraphPad Prism 7. The data were curve fit with a variable slope function to estimate IC50 values. For each isolate, a Z′ factor to assess assay quality was calculated from positive controls (eight drug-free wells) and negative controls (eight parasite-free, red cell control wells). Z′ values over 0.5 were considered good assays, but each curve was also examined by eye for suitability. Some assays with Z′ below 0.5 may be considered valid depending on factors such as the SE of the curve-fit IC50."}, "[5]": {"system": "cGMP-PDE activity in gametocyte lysates (PDEα, PDEδ)", "experiment": "cGMP hydrolysis SPA in stage IV/V gametocyte membrane lysates", "type": "biochemical, Plasmodium falciparum", "conditions": "gametocyte lysate; geometric mean ×/÷ geometric SD", "protocol": "cGMP signaling is known to play an essential role in gametogenesis in Plasmodium ([19], [20], [28]). We therefore tested the effects of all newly synthesized analogs for their ability to inhibit cGMP hydrolysis in crude gametocyte membrane preparations. […] S5A. These findings were also consistent with our enzyme-linked immunosorbent assay (ELISA)–based measurement of elevated cGMP levels in gametocytes following incubation with an example of each subseries (Fig. 2A). […] The levels of cAMP detected in gametocytes were similar in dimethyl sulfoxide (DMSO)–, XA-, and inhibitor-treated samples, and we could detect little or no cAMP hydrolysis in mature gametocytes (fig. S5B). […]\nThe cyclic nucleotide hydrolytic activity of membrane-associated parasite PDE enzymes was measured by a scintillation proximity assay (SPA) ([18]) using lysates of mature P. falciparum schizonts or stage IV/V gametocytes. […] The IC50 values for the compounds were determined using threefold serial dilutions in duplicate. […] The reactions were terminated by addition of 25 μl of PDE SPA beads (PerkinElmer, RPNQ0150), and after 20 min of incubation at room temperature, scintillation was measured using a Wallac 1450 Microbeta Counter (PerkinElmer) for 30 s. […]"}, "P. falciparum Dd2": {"system": "P. falciparum Dd2", "experiment": "Ex vivo 72-hour SYBR Green assay, Dd2 control (Uganda)", "type": "cell-based, Plasmodium falciparum", "conditions": "Ugandan ex vivo assay control; read-out: EC50 lab strain Dd2", "protocol": "as §2"}, "HepG2 cells": {"system": "HepG2 cells", "experiment": "HepG2 cytotoxicity", "type": "cell-based", "description": "Table 1. Key activity data for the three main chemical subseries against ABS parasites, parasite fractions, and HepG2 cells. ND, not determined; ×/÷ is the geometric mean with geometric SD. | column: HepG2 EC50 (nM) (selectivity index)"}, "P. falciparum 3D7": {"system": "P. falciparum 3D7", "experiment": "Ex vivo 72-hour SYBR Green assay, 3D7 control (Uganda)", "type": "cell-based, Plasmodium falciparum", "conditions": "Ugandan ex vivo assay control; read-out: EC50 lab strain 3D7", "protocol": "as §2"}},
  "note": "Where two headings read alike, the source gives them in different places.",
  "data": [
    {"smiles": "CCc1c2nc(-c3cc(-c4ccccc4)cnc3OCC(C)C)[nH]c(=O)c2nn1CCOC", "note": "[SAL-0010028]", "values": [
      {"measurement": "Selectivity against human PDE5", "setting": "human PDE5A1", "result": 773, "unit": "fold"},
      {"measurement": "% inhibition gametocyte viability at 15 μM", "setting": "[1]", "result": "57.1 ± 27.0", "unit": "%"},
      {"measurement": "% inhibition of exflagellation at 2 μM", "setting": "[2]", "result": "18.6 ± 15.8", "unit": "%"},
      {"measurement": "% inhibition of female gamete formation at 2 μM", "setting": "[3]", "result": "6.9 ± 2.6", "unit": "%"}
    ]},
    {"smiles": "CCCCOc1ncc(Br)cc1-c1nc2c(CC)n(CCOC)nc2c(=O)[nH]1", "note": "[SAL-0010039]", "values": [
      {"measurement": "% inhibition gametocyte viability at 15 μM", "setting": "[1]", "result": 0, "unit": "%"},
      {"measurement": "% inhibition of exflagellation at 2 μM", "setting": "[2]", "result": 0, "unit": "%"},
      {"measurement": "% inhibition of female gamete formation at 2 μM", "setting": "[3]", "result": "20.7 ± 2.3", "unit": "%"},
      {"measurement": "Selectivity against human PDE6", "setting": "human PDE6C", "result": 338, "unit": "fold"}
    ]},
    {"smiles": "CCNC(=O)c1cnc(OCC(C)C)c(-c2nc3c(C(C)C)n[nH]c3c(=O)[nH]2)c1", "note": "[SAL-0010333]", "values": [
      {"measurement": "EC50", "setting": "[4]; read-out: EC50 clinical isolates, Gmean (geometric mean)", "result": 167, "unit": "nM"},
      {"measurement": "EC50", "setting": "[4]; read-out: EC50 clinical isolates, Median", "result": 160, "unit": "nM"},
      {"measurement": "IC50", "setting": "[5]", "result": "77.2 ± 1.8", "unit": "nM"},
      {"measurement": "EC50", "setting": "P. falciparum Dd2", "result": 181, "unit": "nM"},
      {"measurement": "EC50", "setting": "HepG2 cells", "result": "> 25000", "unit": "nM"},
      {"measurement": "EC50", "setting": "P. falciparum 3D7", "result": 223, "unit": "nM"}
    ]}
  ]
}
